In patent publication US12274703B2, “Compositions and methods of treatment for neurological disorders comprising a dementia” (Gliapharm SA, priority 2017, dated 2025):
Structures can show the parent of a compound that is named as a salt.

Tested on: primary astrocytes
Assay: High throughput screening for lactate secretion: acidification of extracellular medium (SNARF5)
Type: cell-based, mouse
Settings: Mus musculus, Astrocyte, 1.5 h; Appendix I; primary screening, 10 uM, 90 min; relative to positive control; read-out: Score
Procedure: Primary cultures of cerebrocortical astrocytes were obtained from 1-2-day-old OF1 mouse pups (Charles River Laboratories). Briefly, cortices were isolated and minced in small pieces under a dissecting microscope. The cells were incubated for 30 min at 37° C. in a solution containing 20 U/ml of papain enzyme (Worthington Biochemical), L-cysteine 1 mM (Sigma), and 10 kU/ml DNase I (Worthington Biochemical) for an enzymatic dissociation. Papain activity was stopped by the addition of fetal calf serum (FCS) to the solution, and a single-cell suspension was then obtained by mechanical dissociation, which consisted in cells trituration in a DMEM (D7777, Sigma-Aldrich) medium (supplemented with 44 mm NaHCO3, and 10 ml/L antibiotic/antimycotic solution) containing 10% FCS. The cells were seeded at an average density of 6×10^4 cells/cm^2 in poly-D-lysine-coated 96, 12 or 6-well culture plates, depending on their use, and incubated at 37° C. in a humidified atmosphere containing 5% CO2/95% air. Culture medium was renewed twice per week. Cells were stimulated and harvested between DIV14 and DIV17, when confluence and cell growth were optimal.
Secretion of lactate in a high-throughput screening (HTS) fashion was measured indirectly through the acidification of extracellular medium. To this end, primary astrocytes grown in 96-well plates for 17 days were stimulated with the compounds as listed herein.
After washing the cells twice with stimulation medium (DMEM (D5030, Sigma), 3 mM NaHCO3 and 5 mM Glucose) at 37° C., cells were stimulated with the compounds at a final concentration of 10 uM (1% DMSO final) in 50 ul per well of stimulation medium supplemented with 10 uM of the extracellular pH sensor SNARF-5F %-(AND-6)-CAR (Life Technologies Corporation). Each compound was tested in two different plates for duplicates.
After 90 min stimulation, fluorescence was read at exc. (excitation) 480 nm/emm. (emission) 580 nm and at exc 480 nm/emm. 630 nm. The ratio of fluorescence between 630 nm and 580 emission values, which represents extracellular pH, was calculated.
In each plate, 8 wells were used for negative controls (DMSO) and 8 wells were used for positive controls (CCCP 2 uM in DMSO). Z prime values were calculated for each of the plates tested and values <0 were discarded.
The average and SD of compounds' values tested in duplicates were calculated, and compound was noted as HIT when the difference between compound's average and negative control's average was greater than three times the sum of compound's SD and negative controls' SD. Only scores greater than 40% were considered as lead hits for the CDC54K library; for the remaining libraries, all hits were considered. Scores are calculated as the % of activity compared to the positive control in each plate (which is 100%).
Primary screening hits were cherry picked on new plates and confirmed for SNARF5 effect, after having discarded those compounds that are fluorescent (exc. 480 nm/emm. 580 nm or 630 nm) before stimulation. Extracellular medium was next analyzed for extracellular lactate quantification for secondary screening.
Identification of lactate-enhancing drugs with high throughput screening (HTS) experiments on astrocytes primary cultures using extracellular pH dye (SNARF5F 5-(and 6)-carboxylic acid) for 90 min. The procedure is described in Material and Methods (2. Cell culture, 2.1. HTS for lactate secretion and 2.2. Extracellular lactate quantification).
The procedure was performed as follows: • Primary screening: acidification of the extracellular medium • Primary screening confirmation: acidification of the extracellular medium, removal of compounds with fluorescent activity at exc. 480 nm/emm. 580 nm or 630 nm. • Secondary screening: dosage of extracellular lactate

Row | Structure (SMILES) | Emax at 10 µM
1 | O=S(=O)(c1ccc(F)cc1)N1CCSC1c1ccccc1Cl (stereo not shown) [4052-4279] | 15.6%
2 | CCc1ccc(S(=O)(=O)N2CCSC2c2ccc(OC)c(OC)c2)cc1 (stereo not shown) [4052-4304] | 49.4%
3 | Cc1nc2c(c(Nc3cccc(C(F)(F)F)c3)n1)CCC2 [D278-0514] | 0%
4 | Cc1oc2ncnc(N3CCCC(C(=O)NCc4ccccn4)C3)c2c1C (stereo not shown) [F228-0350] | 95.8%
5 | Cc1oc2ncnc(N3CCCC(C(=O)NCc4cccnc4)C3)c2c1C (stereo not shown) [F228-0351] | 59.2%
6 | Cc1oc2ncnc(N3CCCC(C(=O)NCc4ccccc4)C3)c2c1C (stereo not shown) [F228-0365] | 103%
7 | CCNC(=O)C1CCCN(c2ncnc3oc(C)c(C)c23)C1 (stereo not shown) [F228-0534] | 35.4%
8 | CNC(=O)C1CCCN(c2ncnc3oc(C)c(C)c23)C1 (stereo not shown) [F228-0541] | 15.3%
9 | Cc1nc(N2CCCC(C(=O)NCc3cccnc3)C2)c2c(C)c(C)oc2n1 (stereo not shown) [F228-0856] | 18.6%
10 | COc1ccc(Cl)cc1S(=O)(=O)NCc1ccncc1 [F0376-0203] | 20.3%
11 | Cc1cccc([N+]2=C3SCCCN3C(O)(c3ccc(Cl)cc3)C2)c1 (stereo not shown) [F0522-0533] | 55.7%
12 | COc1ccccc1[N+]1=C2CCCCN2C(O)(c2ccc(F)cc2)C1 (stereo not shown) [F0524-0338] | 73.6%
13 | OC1(c2ccccc2)C[N+](c2ccc(Cl)cc2)=C2CCCCN21 (stereo not shown) [F0524-0488] | 51.2%
14 | COc1ccc(C2(O)C[N+](c3ccccc3C)=C3CCCCN32)cc1 (stereo not shown) [F0524-0507] | 61.2%
15 | CCOc1ccc(C2(O)C[N+](c3ccccc3C)=C3CCCCN32)cc1 (stereo not shown) [F0524-0511] | 70%
16 | COc1ccccc1[N+]1=C2CCCCCN2C(O)(c2ccc(F)cc2)C1 (stereo not shown) [F0524-0611] | 53.4%
17 | COc1ccc(C2SCCN2S(=O)(=O)c2ccc(C)c(C)c2)cc1OC (stereo not shown) [F1462-0491] | 27.2%
18 | COc1ccccc1Nc1nc(N2CCOCC2)c2ccccc2n1 [F3007-0009] | 19.8%
19 | CC(=O)N1CCCc2cc(S(=O)(=O)NCc3ccc(Cl)cc3)ccc21 [G855-0033] | 34.7%
20 | CC(=O)N1CCCc2cc(S(=O)(=O)NCc3ccccc3)ccc21 [G855-0210] | 20.6%

Row | Structure (SMILES) | Emax at 10 µM
21 | COc1ccc(C2(O)C[N+](c3cc(C)ccc3C)=C3SCCCN32)c(F)c1 (stereo not shown) [K404-0183] | 89.6%
22 | COc1ccc([N+]2=C3SCCCN3C(O)(c3cccc([N+](=O)[O-])c3)C2)cc1 (stereo not shown) [K404-0277] | 0%
23 | Cc1cccc([N+]2=C3SCCCN3C(O)(c3ccc(F)cc3)C2)c1 (stereo not shown) [K404-0394] | 34.7%
24 | Cc1cccc([N+]2=C3SCCCN3C(O)(c3ccc(OC(F)F)cc3)C2)c1 (stereo not shown) [K404-0400] | 36.3%
25 | CCc1ccc(C2(O)C[N+](c3ccccc3OC)=C3CCCCN32)cc1 (stereo not shown) [K404-0672] | 125%
26 | CCOc1ccc(C2(O)C[N+](c3ccccc3OC)=C3CCCCN32)cc1 (stereo not shown) [K404-0673] | 93.1%
27 | Cc1cccc([N+]2=C3CCCCN3C(O)(c3ccc(F)cc3)C2)c1C (stereo not shown) [K404-0685] | 67.9%
28 | Cc1ccc(C)c([N+]2=C3CCCCN3C(O)(c3ccc(F)cc3)C2)c1 (stereo not shown) [K404-0697] | 59.6%
29 | COc1ccc(C2(O)C[N+](c3cccc(C)c3)=C3CCCCN32)cc1 (stereo not shown) [K404-0796] | 86.1%
30 | Cc1cccc([N+]2=C3CCCCN3C(O)(c3ccc(Cl)cc3)C2)c1 (stereo not shown) [K404-0800] | 97.3%
31 | Cc1ccc([N+]2=C3CCCCCN3C(O)(c3ccc([N+](=O)[O-])cc3)C2)cc1 (stereo not shown) [K404-0828] | 0%
32 | COc1ccccc1[N+]1=C2CCCCCN2C(O)(c2ccccc2)C1 (stereo not shown) [K404-0838] | 103%
33 | COc1ccccc1[N+]1=C2CCCCCN2C(O)(c2cccc([N+](=O)O)c2)C1 (stereo not shown) [K404-0842] | 16.9%
34 | COc1ccc(C2(O)C[N+](c3cc(C)ccc3C)=C3CCCCCN32)cc1OC (stereo not shown) [K404-0852] | 0%
35 | COc1ccc(OC)c([N+]2=C3CCCCCN3C(O)(c3ccc(C)cc3)C2)c1 (stereo not shown) [K404-0855] | 58.5%
36 | CCOc1ccc(C2(O)C[N+](c3cc(OC)ccc3OC)=C3CCCCCN32)cc1 (stereo not shown) [K404-0860] | 57.9%
37 | COc1ccc(OC)c([N+]2=C3CCCCCN3C(O)(c3ccc([N+](=O)[O-])cc3)C2)c1 (stereo not shown) [K404-0863] | 0%
38 | COc1ccc(C2(O)C[N+](c3ccccc3C)=C3CCCCCN32)cc1OC (stereo not shown) [K404-0906] | 19.1%
39 | Cc1cccc([N+]2=C3CCCCCN3C(O)(c3ccc(F)cc3)C2)c1 (stereo not shown) [K404-0910] | 72.6%
40 | Cc1cccc([N+]2=C3CCCCCN3C(O)(c3ccc([N+](=O)[O-])cc3)C2)c1 (stereo not shown) [K404-0914] | 0%

Row | Structure (SMILES) | Emax at 10 µM
41 | Cc1cccc([N+]2=C3CCCCCN3C(O)(c3cccc([N+](=O)O)c3)C2)c1 (stereo not shown) [K404-0915] | 0%
42 | Cc1cccc(NS(=O)(=O)c2cc(-c3noc(C)n3)cs2)c1 [L287-0220] | 35.2%
43 | O=S(=O)(NC1CCCC1)c1cc(-c2noc(C3CCC3)n2)cs1 [L287-1221] | 51.6%
44 | CC(=O)c1ccc(NS(=O)(=O)c2cc(-c3noc(C4CCCC4)n3)cs2)cc1 [L287-1577] | 119%
45 | Cc1ccc(CNS(=O)(=O)c2cc(-c3noc(C4CCCC4)n3)cs2)cc1 [L287-1641] | 77.2%
46 | CCN(Cc1ccccc1)S(=O)(=O)c1cc(-c2noc(C3CCCC3)n2)cs1 [L287-1758] | 0%
47 | Cn1nccc1-c1csc(S(=O)(=O)Nc2ccc(F)cc2)c1 [L924-0760] | 69.1%
48 | COc1ccc(C)cc1NS(=O)(=O)c1cc(-c2ccnn2C)cs1 [L924-0830] | 78.2%
49 | Cc1cccc(NS(=O)(=O)c2cc(-c3ccnn3C)cs2)c1 [L924-0884] | 65.6%
50 | CCn1nccc1-c1csc(S(=O)(=O)Nc2cc(C)ccc2C)c1 [L924-0988] | 52.7%
51 | CCn1nccc1-c1csc(S(=O)(=O)Nc2ccccc2OC)c1 [L924-1088] | 78.5%
52 | O=C(c1noc2ccc(S(=O)(=O)Nc3cccc(F)c3)cc12)N1CCCC1 [L995-0058] | 42.3%
53 | Cc1ccc(CNS(=O)(=O)c2ccc3onc(C(=O)N4CCCCC4)c3c2)cc1 [L995-0386] | 18.8%
54 | Cc1ccccc1NS(=O)(=O)c1ccc2onc(C(=O)N3CCCCC3)c2c1 [L995-0405] | 21.3%
55 | CC(=O)N1CCc2sc(S(=O)(=O)Nc3cc(C)cc(C)c3)cc2C1 [P025-0080] | 33.1%
56 | CC(=O)N1CCc2sc(S(=O)(=O)NCc3ccccc3)cc2C1 [P025-0168] | 14.5%
57 | O=C(C1CC1)N1CCc2sc(S(=O)(=O)Nc3cccc(Cl)c3)cc2C1 [P025-0462] | 38.7%
58 | O=C(C1CCOC1)N1CCCn2nc(-c3cccc(Cl)c3)cc2C1 (stereo not shown) [P218-0884] | 0%

Same assay, conditions: Mus musculus, Astrocyte, 1.5 h; Prestwick hits; 10 uM, 90 min; activity relative to positive control CCCP 2 uM; read-out: Score

Row | Structure (SMILES) | Emax at 10 µM
59 | CCCCC(CC)CNC(=N)NC(=N)NCCCCCCNC(=N)NC(=N)NCC(CC)CCCC (stereo not shown) [Alexidine dihydrochloride] | 38.9%
60 | Clc1ccc2c(c1)CCc1cccnc1C2=C1CCNCC1 [Desloratadine] | 6.08%
61 | CCCCOc1cc(C(=O)NCCN(CC)CC)c2ccccc2n1 [Dibucaine] | 6.12%
62 | CCC(=O)O[C@@H](O[P@](=O)(CCCCc1ccccc1)CC(=O)N1C[C@H](C2CCCCC2)C[C@H]1C(=O)O)C(C)C [Fosinopril] | 5.71%
63 | CC(COc1ccccc1)NC(C)C(O)c1ccc(O)cc1 (stereo not shown) [Isoxsuprine hydrochloride] | 5.5%
64 | Clc1ccc(COC(Cn2ccnc2)c2ccc(Cl)cc2Cl)c(Cl)c1 (stereo not shown) [Miconazole] | 7.35%

Same assay, conditions: Mus musculus, Astrocyte, 1.5 h; Prestwick hits; 10 uM, 90 min; relative to positive control CCCP 2 uM; read-out: HTS Score (lactate)

Row | Structure (SMILES) | Emax at 10 µM
65 | CCCCC(CC)CNC(=N)NC(=N)NCCCCCCNC(=N)NC(=N)NCC(CC)CCCC (stereo not shown) [Alexidine dihydrochloride] | 38.9%
66 | Clc1ccc2c(c1)CCc1cccnc1C2=C1CCNCC1 [Desloratadine] | 6.1%
67 | CCCCOc1cc(C(=O)NCCN(CC)CC)c2ccccc2n1 [Dibucaine] | 6.1%
68 | CCC(=O)O[C@@H](O[P@](=O)(CCCCc1ccccc1)CC(=O)N1C[C@H](C2CCCCC2)C[C@H]1C(=O)O)C(C)C [Fosinopril] | 5.7%
69 | CC(COc1ccccc1)NC(C)C(O)c1ccc(O)cc1 (stereo not shown) [Isoxsuprine hydrochloride] | 5.5%
70 | Clc1ccc(COC(Cn2ccnc2)c2ccc(Cl)cc2Cl)c(Cl)c1 (stereo not shown) [Miconazole] | 7.3%
